Non-standard residues stand in square brackets, D forms with d. No end group written: not given here. bAib = not defined here; PEG = not defined here; βAla = NCCC(=O)O
Tested on: Normal Kunming (KM) mice
Test: multiple OGTT (mOGTT): hypoglycemic duration after a single administration
Assay type: in vivo
Conditions: monomeric peptides, single injection at the same dose (1.126 nmol), subcutaneous
Description: • 1. Methods: Normal Kunming (KM) mice (purchased from Guangdong Animal Center) were used for oral glucose tolerance test (OGTT) to obtain the hypoglycemic activity and durability of drug. […] The blood glucose meter and blood glucose test paper were from Bayer […]. The average blood glucose of each group was used as an evaluation standard: When the average blood glucose of experimental group was higher than that of the NaCl control group for two times, the measurement stopped and the hypoglycemic period compared to the blank control group was the effective duration. • 2. Results • 2.1 single OGTTs: after a single administration, the mice were orally administered glucose once and measured the blood glucose from the tail blood at 0, 10, 20, 40, 60 and 120 min. […] The duration of each monomer group was about 1⁄2-1⁄4 of the duration of its corresponding dimer group. […] Therefore, the 2G3 peptide was selected for treating type II diabetes (T2D) in vivo and subsequent experiments.

Row | Substance | Hypoglycemic [days]
1 | His-Ala-Glu-Gly-Thr-Phe-Thr-Cys-Asp-Val-Ser-Ser-Tyr-Leu-Glu-Gly-Gln-Ala-Ala-Lys[N-α-(N-α-oleoyl-L-γ-glutamyl)]-Glu-Phe-Ile-Ala-Trp-Leu-Val-Arg-Gly-Arg-Gly-NH2 (HAEGTFTCDVSSYLEGQAAXEFIAWLVRGRG; oleoyl-gamma-Glu on Lys; C-terminal amide; Sequence is synthesized; (20)..(20) Xaa is 26Lys[N-e-(N-a-oleoyl-L-g-glutamyl)]; (31)..(31) N-terminal) [G8 series 59] | 3
2 | His-Ala-Glu-Gly-Thr-Phe-Thr-Cys-Asp-Val-Ser-Ser-Tyr-Leu-Glu-Gly-Gln-Ala-Ala-Lys[N-ϵ-(N-α-Palmitoyl-L-γ-glutamyl)]-Glu-Phe-Ile-Ala-Trp-Leu-Val-Arg-Gly-Arg-Gly-NH2 (HAEGTFTCDVSSYLEGQAAXEFIAWLVRGRG; palmitoyl-gamma-Glu on Lys; C-terminal amide; Sequence is synthesized; (20)..(20) Xaa is 26Lys[N-e-(N-a-palmitoyl-L-g-glutamyl)]; (31)..(31) N-terminal) [G8 series 57] | 2
3 | His-Ala-Glu-Gly-Thr-Phe-Thr-Cys-Asp-Val-Ser-Ser-Tyr-Leu-Glu-Gly-Gln-Ala-Ala-Lys[N-ϵ-(N-α-Palmitoyl-L-γ-glutamyl)]-Glu-Phe-Ile-Ala-Trp-Leu-Val-Arg-Gly-Arg-Gly-OH (HAEGTFTCDVSSYLEGQAAXEFIAWLVRGRG; palmitoyl-gamma-Glu on Lys; C-terminal acid; Sequence is synthesized; (20)..(20) Xaa is 26Lys[N-e-(N-a-palmitoyl-L-g-glutamyl)]; (31)..(31) C-terminal) [G8 series 56] | 1

Same assay, conditions: single injection at the same dose (1.126 nmol), subcutaneous

Row | Substance | Hypoglycemic duration [days] | Hypoglycemic duration (days)
4 | 2G4 series 38: disulfide-linked homodimer of monomer SEQ ID NO: 38 (HXEGTFTSDVSCYLEGQAAXEFIAWLVRGRG; disulfide-linked homodimer; Sequence is synthesized; (2)..(2) Xaa is bAib; (20)..(20) Xaa is 26Lys[N-e-(N-a-oleoyl-L-g-glutamyl)]; (31)..(31) N-terminal) | 17 | –
5 | 2G4 series 39: disulfide-linked homodimer of monomer SEQ ID NO: 39 (HXEGTFTSDVSCYLEGQAAXEFIAWLVRGRG; disulfide-linked homodimer; Sequence is synthesized; (2)..(2) Xaa is bAla; (20)..(20) Xaa is 26Lys[N-e-(N-a-oleoyl-L-g-glutamyl)]; (31)..(31) N-terminal) | 16 | –
6 | 2G5 series 40: disulfide-linked homodimer of monomer SEQ ID NO: 40 (HAEGTFTSDVSCYLEGQAAXEFIAWLVXGRG; disulfide-linked homodimer; Sequence is synthesized; (20)..(20) Xaa is 26Lys[N-e-(N-a-palmitoyl-L-g-glutamyl)]; (28)..(28) Xaa is 26Lys[N-e-(N-a-palmitoyl-L-g-glutamyl)]; (31)..(31) C-terminal) | – | 3 (2G5 peptide) days
7 | 2G5 series 41: disulfide-linked homodimer of monomer SEQ ID NO: 41 (HAEGTFTSDVSCYLEGQAAXEFIAWLVXGRG; disulfide-linked homodimer; Sequence is synthesized; (20)..(20) Xaa is 26Lys[N-e-(N-a-palmitoyl-L-g-glutamyl)]; (28)..(28) Xaa is 26Lys[N-e-(N-a-palmitoyl-L-g-glutamyl)]; (31)..(31) N-terminal) | 5 | –
8 | 2G5 series 43: disulfide-linked homodimer of monomer SEQ ID NO: 43 (HXEGTFTSDVSCYLEGQAAXEFIAWLVXGRG; disulfide-linked homodimer; Sequence is synthesized; (2)..(2) Xaa is bAib; (20)..(20) Xaa is 26Lys[N-e-(N-a-palmitoyl-L-g-glutamyl)]; (28)..(28) Xaa is 26Lys[N-e-(N-a-palmitoyl-L-g-glutamyl)]; (31)..(31) N-terminal) | 7 | –
9 | 2G5 series 44: disulfide-linked homodimer of monomer SEQ ID NO: 44 (HXEGTFTSDVSCYLEGQAAXEFIAWLVXGRG; disulfide-linked homodimer; Sequence is synthesized; (2)..(2) Xaa is bAla; (20)..(20) Xaa is 26Lys[N-e-(N-a-palmitoyl-L-g-glutamyl)]; (28)..(28) Xaa is 26Lys[N-e-(N-a-palmitoyl-L-g-glutamyl)]; (31)..(31) N-terminal) | 6 | –
10 | 2G6 series 49: disulfide-linked homodimer of monomer SEQ ID NO: 49 (HXEGTFTSDVSCYLEGQAAXEFIAWLVRGRG; disulfide-linked homodimer; Sequence is synthesized; (2)..(2) Xaa is bAib; (20)..(20) Xaa is 26Lys[N-e-(N-a-oleoyl-L-g-glutamyl)]; (31)..(31) N-terminal) | 17 | –
11 | 2G6 series 50: disulfide-linked homodimer of monomer SEQ ID NO: 50 (HXEGTFTSDVSCYLEGQAAXEFIAWLVRGRG; disulfide-linked homodimer; Sequence is synthesized; (2)..(2) Xaa is bAla; (20)..(20) Xaa is 26Lys[N-e-(N-a-oleoyl-L-g-glutamyl)]; (31)..(31) N-terminal) | 16 | –
12 | 2G7 series 54: disulfide-linked homodimer of monomer SEQ ID NO: 54 (H[bAib]EGTFTSDVSCYLEGQAAKEFIAWLVR[bAib]R-NH2; reading uncertain; also: disulfide-linked homodimer, disulfide at 12, other end not in the chain, printed as His-βAib-Glu-Gly-Thr-Phe-Thr-Ser-Asp-Val-Ser-Cys-Tyr-Leu-Glu-Gly-Gln-Ala-Ala-Lys-Glu-Phe-Ile-Ala-Trp-Leu-Val-Arg-βAib-Arg-NH2) | 5 | –
13 | 2G7 series 55: disulfide-linked homodimer of monomer SEQ ID NO: 55 (H[βAla]EGTFTSDVSCYLEGQAAKEFIAWLVR[βAla]R-NH2; also: disulfide-linked homodimer, disulfide at 12, other end not in the chain) | 4 | –
14 | 2G8 series 56: disulfide-linked homodimer of monomer SEQ ID NO: 56 (HAEGTFTCDVSSYLEGQAAXEFIAWLVRGRG; disulfide-linked homodimer; Sequence is synthesized; (20)..(20) Xaa is 26Lys[N-e-(N-a-palmitoyl-L-g-glutamyl)]; (31)..(31) C-terminal) | 2 | –
15 | 2G8 series 57: disulfide-linked homodimer of monomer SEQ ID NO: 57 (HAEGTFTCDVSSYLEGQAAXEFIAWLVRGRG; disulfide-linked homodimer; Sequence is synthesized; (20)..(20) Xaa is 26Lys[N-e-(N-a-palmitoyl-L-g-glutamyl)]; (31)..(31) N-terminal) | 5 | –
16 | 2G8 series 58: disulfide-linked homodimer of monomer SEQ ID NO: 58 (HAEGTFTCDVSSYLEGQAAXEFIAWLVRGRG; disulfide-linked homodimer; Sequence is synthesized; (20)..(20) Xaa is 26Lys[N-e-(N-a-oleoyl-L-g-glutamyl)]; (31)..(31) C-terminal) | 3 | –
17 | 2G8 series 59: disulfide-linked homodimer of monomer SEQ ID NO: 59 (HAEGTFTCDVSSYLEGQAAXEFIAWLVRGRG; disulfide-linked homodimer; Sequence is synthesized; (20)..(20) Xaa is 26Lys[N-e-(N-a-oleoyl-L-g-glutamyl)]; (31)..(31) N-terminal) | 5 | –
18 | 2G8 series 66: disulfide-linked homodimer of monomer SEQ ID NO: 66 (HXEGTFTCDVSSYLEGQAAXEFIAWLVRGRG; disulfide-linked homodimer; Sequence is synthesized; (2)..(2) Xaa is bAib; (20)..(20) Xaa is 26Lys[N-e-(N-a-oleoyl-L-g-glutamyl)]; (31)..(31) N-terminal) | 8 | –
19 | 2G8 series 67: disulfide-linked homodimer of monomer SEQ ID NO: 67 (H[bAib]EGTFTCDVSSYLEGQAAKEFIAWLVR[bAib]R; reading uncertain; also: disulfide-linked homodimer of two chains, disulfide at 8, other end not in the chain) | 3 | –
20 | 2G8 series 68: disulfide-linked homodimer of monomer SEQ ID NO: 68 (HXEGTFTCDVSSYLEGQAAXEFIAWLVRGRG; disulfide-linked homodimer; Sequence is synthesized; (2)..(2) Xaa is bAla; (20)..(20) Xaa is 26Lys[N-e-(N-a-oleoyl-L-g-glutamyl)]; (31)..(31) N-terminal) | 7 | –
21 | 2G8 series 69: disulfide-linked homodimer of monomer SEQ ID NO: 69 (H[βAla]EGTFTCDVSSYLEGQAAKEFIAWLVR[βAla]R; also: disulfide-linked homodimer) | 3 | –
22 | 2G9 series 71: disulfide-linked homodimer of PEG-modified monomer SEQ ID NO: 71 (HAEGTFTSDVSCYLEGQAAKEFIAWLVRGR-{NH2-PEG}; reading uncertain; also: disulfide-linked homodimer) | 5 | –

From patent publication US20240150423A1, “GLP-1 ANALOGUE-MODIFIED DIMERS WITH DIFFERENT CONFIGURATIONS, PREPARATION METHOD THEREOF, AND APPLICATION THEREOF IN TREATMENT OF TYPE II DIABETES” (Nanjing Finepeptide Biopharmaceutical Co.,Ltd, priority 2019, published 2024)
